Experimental data taken from ChEMBL document CHEMBL4602694, “Suppression of Drug-Resistant Non-Small-Cell Lung Cancer with Inhibitors Targeting Minichromosomal Maintenance Protein” (J Med Chem, 2020).

Assays:
[1] = tested on: NCI-H1975; experiment: Antiproliferative activity against human NCI-H1975 cells assessed as reduction in cell viability incubated for 72 hrs by SRB assay; format: functional, cell-based; conditions: NCI-H1975, 72 h
[2] = tested on: NCI-H1975; experiment: Antitumor activity against human NCI-H1975 cells xenografted in athymic nude BALB/c mouse assessed as tumor size at 1 mg/kg, ip administered for 4 weeks (reference value: 546.2 +/- 95.2 cu.mm); format: functional
[3] = tested on: NCI-H1975; experiment: Antitumor activity against human NCI-H1975 cells xenografted in athymic nude BALB/c mouse assessed as tumor size at 4 mg/kg, ip administered for 4 weeks (reference value: 546.2 +/- 95.2 cu.mm); format: functional
[4] = tested on: Hs68; experiment: Cytotoxicity against human HS68 cells assessed as reduction in cell viability incubated for 72 hrs by SRB assay; format: cell-based; conditions: Hs68, 72 h
[5] = tested on: NCI-H1975; experiment: Potency index, ratio of IC50 of AS4583 to IC50 of compound for Antiproliferative activity against human NCI-H1975 cells assessed as reduction in cell viability incubated for 72 hrs by SRB assay; format: functional

IC50 [1] [nM]	Structure (SMILES)	further results
250	Cc1oc2c(c1C(=O)NCCCCn1ccnc1)C(=O)c1ccccc1C2=O	–
280	Cc1oc2c(c1C(=O)NCCn1ccnc1)C(=O)c1ccccc1C2=O	–
918	Cc1oc2c(c1C(=O)NCCCn1cccc1)C(=O)c1ccccc1C2=O	–
24	Cc1oc2c(c1C(=O)NCCCN1CCCC1)C(=O)c1ccccc1C2=O	IC50 [4]: 77 nM
80	Cc1oc2c(c1C(=O)NCCCN1CCOCC1)C(=O)c1ccccc1C2=O	–

Second part, the molecule before the results:

Structure (SMILES)	IC50 [1] [nM]	further results
CCc1oc2c(c1C(=O)NCCCn1ccnc1)C(=O)c1ccccc1C2=O	288	–
Cc1oc2c(c1C(=O)NCCCCc1ccccc1)C(=O)c1ccccc1C2=O	> 10000	–
Cc1oc2c(c1C(=O)NCCCn1ccnc1)C(=O)c1ccc(F)cc1C2=O	17	Activity [2]: 128.2 mm3; Activity [3]: 109.5 mm3
Cc1oc2ccccc2c1C(=O)NCCCn1ccnc1	> 10000	–
CC(C)c1oc2c(c1C(=O)NCCCn1ccnc1)C(=O)c1ccccc1C2=O	260	–
Cc1[nH]c2c(c1C(=O)NCCCn1ccnc1)C(=O)c1ccccc1C2=O	8730	Ratio IC50 [5]: 100
O=C1c2ccccc2C(=O)c2c1oc(-c1ccccc1)c2C(=O)NCCCn1ccnc1	826	–
